Data set [1] can be described thus: Hygroscopicity test. It counts as physicochemical. The conditions noted are these: 25° C.; for Relative to 0 h, weight gain %: relative humidity 75%, sampling time 48 h. The source says: The hygroscopicity test performed according to the Pharmacopoeia of the People's Republic of China (2005 Edition) confirmed that the sodium tanshinone IIA sulfonate hydrate of the present invention is much lower than anhydrous sodium tanshinone IIA sulfonate.
Samples of sodium tanshinone IIA sulfonate hydrates and anhydrous sodium tanshinone IIA sulfonate: anhydrous sodium tanshinone IIA sulfonate and the hydrates of the present invention, about 5 g for each, were placed in dry watch glass with constant weight, precisely weighed, subjected to the test at 25° C. and a relative humidity (RH) of 75%, separately sampled at 0 h and 48 h of the test, and the percentages of weight gain due to hygroscopicity was calculated.

Data set [2] is described as follows: Accelerated stability test (increase of the relative substances by HPLC). The data set is classed as physicochemical. The conditions noted are these: RH75%, 30° C., lucifuge, sealed in ampoules, sampling time 6 month. On the procedure: In addition, the accelerated stability test performed according to the Pharmacopoeia of the People's Republic of China (2005 Edition) confirmed that the sodium tanshinone IIA sulfonate hydrate crystal had better storage stability than anhydrous sodium tanshinone IIA sulfonate, and thus can be stably stored for a more longer period.
Under RH75%, 30° C. and lucifuge condition, the samples of sodium tanshinone IIA sulfonate hydrate crystals and anhydrous sodium tanshinone IIA sulfonate were separately sealed in ampoules for accelerated stability test, chromatographic conditions: column Kromasil C18 (250 mm×4.6 mm, 5 μm), mobile phase: methanol—0.02 mol/L potassium dihydrogen phosphate solution (adjusted with phosphoric acid to pH=4) (60:40), detection wavelength: 271 nm, flow rate: 1 ml/min, to measure increase extent of the relative substances (see results in Tables 1-2).

In data set [3] the test system is calcium paradox cardiac muscle tissue. The data set is described as follows: Protection effects on calcium paradox cardiac muscle (ex vivo heart perfusion, Langendorff). Details: species or system guinea pigs. The settings on record: hydrates 32 mg/L, Iproveratril 2.1 mg/L; for Calcium uptake, x ± S μmol/min/g, dry weight: cardiac muscle tissue; for Calcium uptake, x ± S μmol/min/g, dry weight / Protein release, x ± S mg/min/g, dry weight: 8 guinea pigs per group; for Protein release, x ± S mg/min/g, dry weight: coronary artery effluent of 20 min after calcium restored; for Calcium uptake decrease rate, % / Protein release decrease rate, %: relative to calcium paradox group. On the procedure: 48 Healthy guinea pigs, body weight 280-360 g, were divided into 6 groups, 8 guinea pigs per group, separately comprising: normal control group, calcium paradox group, iproveratril positive control group, 3 drug-administrated groups, the animals were fasted for one night before test, intraperitoneally injected with heparin 0.5 mg/kg, intraperitoneally injected with pentobarbital sodium 30 mg/kg after 20 min, their chests were opened after anesthesia, and hearts were taken out quickly, immersed in Kreb's-Henseleit (K-H) perfusion solution as cooled with ice, after aortic cannulation, the hearts were placed in ex vivo heart perfusion device with constant temperature and constant pressure. […] The effluent of coronary artery of 20 min when calcium-containing perfusion solution was restored was collected, the protein release amounts mg/min/g drywt and cardiac muscle tissue calcium uptake μmol/g drywt in the collected coronary artery effluents were measured according to the reference document.

Data set [4] relates to arrhythmia induced by calcium chloride in rats. In words: Effects on arrhythmia induced by calcium chloride in rats. The data set is classed as in vivo, SD rats. The settings on record: intravenous injection, 10 animals per group, 2.5% calcium chloride 100 mg/kg, hydrates 10 mg/kg, Quinidine 13.5 mg/kg. On the procedure:
50 SD rats were provided, male and female, body weight 226±31 g, randomly divided into 5 groups, separately administered by intravenous injection with physiological saline, Quinidine, […] The rats were anaesthetized with 3% pentobarbital sodium 40 mg·kg^−1, fixed in supine position on operation table, injected via lingual vein for 6 minutes, quickly intravenously injected (completed injection in 5 s) with 2.5% calcium chloride 100 mg·kg^−1 (0.4 ml/100 g), the number of animal with ventricular fibrillation and the number of died animals were recorded.

In data set [5] the test system is ischemic reperfusion brain tissues of rats. In words: Effects on rat ischemic reperfusion (NO, NOS, MDA, SOD in brain tissue). The settings on record: for Result of the ischemic reperfusion test in words: compared with sodium tanshinone IIA sulfonate 1.5 hydrate. The data set is classed as in vivo, Wistar rats. Here is the method: 36 Male Wistar rats, body weight 250-300 g, were randomly divided into 3 groups: sham operation group, ischemic reperfusion group, and group of drug of the invention, 12 rats per group. As for group of drug of the invention: the rats were peritoneally administered with sodium tanshinone IIA sulfonate 1.5 hydrate in physiological saline, does of 40 mg/kg, twice per day, for consecutive 7 days, and subjected to cerebral ischemia operation 60 min after the last administration; the rats of sham operation group and ischemic reperfusion group were administered with the same volume of isometric physiological saline, respectively.
The rats were anesthetized with 10% chloral hydrate (3.5 ml/kg) by peritoneal injection, fixed in supine position, modeled by the improved Zea Longa thread occlusion method in document [Journal of Shanghai Jiaotong University (Medicine), 2007, 27(10):1218-1222]; in the sham operation group, thread was merely inserted 10 mm, and other steps were the same as the model group, animals appeared operation-side Horner syndrome and opposite-side movement disorder were deemed as successfully established models. After successful establishment of models, the animals were administered in the same dose as above twice per day, and the sham operation group and ischemic reperfusion group were administered with the same volume of isometric physiological saline, respectively. The thread was drawn out 2 h after model establishment, the rats were executed 24 h after reperfusion, their brains were taken out quickly and weighed. Physiological saline was used to prepare 10% brain tissue homogenate solution at low temperature, centrifuged at low temperature, 3000 r/min for 10 min, the deposit was discarded, the supernatant was taken up and tested to determine SOD, MDA, NO, NOS contents or activities according to the specifications of the corresponding commercial SOD, MDA, NO, NOS kits, the results are shown in Table 4.

Where [6] appears, read: rat brain tissue homogenate, 40 mg/kg peritoneally twice per day, 2 h ischemia, 24 h reperfusion.

As for `Cc1c(S(=O)(=O)[O-])oc2c1C(=O)C(=O)c1c-2ccc2c1CCCC2(C)C.[Na+]` [Anhydrous Sodium Tanshinone IIA Sulfonate, reference compound], the “Relative to 0 h, weight gain %” value in data set [1] was found to be 11.43%. The Hygroscopicity in words result in data set [1] (compared with the sodium tanshinone IIA sulfonate hydrates, RH 75%, 48 h) is given as “much higher”. Moreover, the “Relative to 0 month, multiple of the relative substances” value (“Relative to 0 month, multiple” for short) in data set [2] is recorded as 1.21.
For `COc1ccc(CCN(C)CCCC(C#N)(c2ccc(OC)c(OC)c2)C(C)C)cc1OC` (stereo not drawn) [Iproveratril, reference compound], in data set [3], the “Calcium uptake, x ± S μmol/min/g, dry weight” value is listed as 36.9 ± 2.5 μmol/min/g, dry weight; the “Protein release, x ± S mg/min/g, dry weight” value (“Protein release … dry weight” below) is reported as 2.6 ± 0.2 mg/min/g, dry weight; the “Calcium uptake decrease rate, %” value stood at 22.5%; the “Protein release decrease rate, %” value is 48%.
Consider `C=C[C@H]1C[N@@]2CC[C@H]1C[C@@H]2[C@@H](O)c1ccnc2ccc(OC)cc12` [Quinidine, reference compound], for which, in data set [4], the “Arrhythmic animal number (n), Heart arrest” value is on record as 4 n and the “Arrhythmic animal number (n), Ventricular fibrillation” value is recorded as 6 n.
As to “Sodium Tanshinone IIA Sulfonate 0.5 Hydrate”, the “Relative to 0 h, weight gain %” value in data set [1] is listed as 7.96%. Moreover, in data set [4], the “Arrhythmic animal number (n), Heart arrest” value is reported as 4 n and the “Arrhythmic animal number (n), Ventricular fibrillation” value was found to be 5 n. Further, the “Result of the ischemic reperfusion test in words” value in data set [5] is recorded as “results similar to those of the sodium tanshinone IIA sulfonate 1.5 hydrate”. Also, in data set [3], the “Calcium uptake, x ± S μmol/min/g, dry weight” value is 34.5 ± 2.4 μmol/min/g, dry weight; the “Protein release … dry weight” value is given as 2.4 ± 0.2 mg/min/g, dry weight; the “Calcium uptake decrease rate, %” value is 27.5%; the “Protein release decrease rate, %” value worked out at 52%. Also, in data set [2], the “Relative to 0 month, multiple” value is 0.34.
As to “Sodium Tanshinone IIA Sulfonate 1.5 Hydrate”, the “Relative to 0 h, weight gain %” value in data set [1] was determined as 4.12%. Moreover, in data set [4], the “Arrhythmic animal number (n), Heart arrest” value is listed as 6 n and the “Arrhythmic animal number (n), Ventricular fibrillation” value worked out at 5 n. In data set [5] (setting [6]), this compound showed an MDA of 2.26 ± 0.62 nmol/mL, an NO of 24 ± 6.35 µmol/L, an NOS of 22 ± 5.31 U/ml and an SOD of 245 ± 21.59 U/ml. In data set [3], the “Calcium uptake, x ± S μmol/min/g, dry weight” value is listed as 35.2 ± 2.8 μmol/min/g, dry weight; the “Protein release … dry weight” value is listed as 2.4 ± 0.3 mg/min/g, dry weight; the “Calcium uptake decrease rate, %” value was found to be 26.1%; the “Protein release decrease rate, %” value worked out at 52%. The “Relative to 0 month, multiple” value in data set [2] is listed as 0.25.
Take “Sodium Tanshinone IIA Sulfonate 2.5 Hydrate”: in data set [1], the “Relative to 0 h, weight gain %” value is reported as 1.25%. In data set [4], the “Arrhythmic animal number (n), Heart arrest” value was determined as 5 n and the “Arrhythmic animal number (n), Ventricular fibrillation” value was 6 n. Besides, in data set [5], the “Result of the ischemic reperfusion test in words” value was “results similar to those of the sodium tanshinone IIA sulfonate 1.5 hydrate”. In addition, in data set [3], the “Calcium uptake, x ± S μmol/min/g, dry weight” value is recorded as 35.4 ± 3.1 μmol/min/g, dry weight; the “Protein release … dry weight” value is 2.5 ± 0.2 mg/min/g, dry weight; the “Calcium uptake decrease rate, %” value stood at 25.6%; the “Protein release decrease rate, %” value was determined as 50%. In data set [2], the “Relative to 0 month, multiple” value is reported as 0.31.

Values taken from US8629178B2, “Sodium tanshinone IIA sulfonate hydrate and preparation method and use thereof” (priority 2009, dated 2014).
